Measurements reported in ChEMBL document CHEMBL1138130, “Synthesis and antibacterial activity of 3-O-acyl-6-O-carbamoyl erythromycin A derivatives” (2006).
Values after ≈ are worked out from the molar mass of the structure shown.

Columns and labels:
Type in all cases: functional
[1] = system: Haemophilus influenzae; assay: Antibacterial activity against Haemophilus influenzae OC4882
[2] = system: Staphylococcus aureus; assay: Antibacterial activity against Staphylococcus aureus OC4172
[3] = system: Streptococcus pneumoniae; assay: Antibacterial activity against Streptococcus pneumoniae OC9132
[4] = system: Streptococcus pneumoniae; assay: Antibacterial activity against Mef(A) efflux pump containing Streptococcus pneumoniae OC4438
[5] = system: Streptococcus pneumoniae; assay: Antibacterial activity against erm(B) ribosomal methylase gene containing Streptococcus pneumoniae OC4051

SMILES | MIC [1] [µg/mL] | MIC [2] [µg/mL] | MIC [3] [µg/mL] | MIC [4] [µg/mL] | MIC [5] [µg/mL]
CC[C@H]1OC(=O)[C@H](C)C(=O)[C@H](C)[C@@H](O[C@@H]2O[C@H](C)C[C@H](N(C)C)[C@H]2O)[C@](C)(OC(=O)NC/C=C/c2ccc(-c3ncccn3)cc2)C[C@@H](C)C(=O)[C@H](C)[C@H]2NC(=O)O[C@@]21C | 4 (≈ 4.78 µM) | 0.12 (≈ 0.144 µM) | 0.03 (≈ 0.0359 µM) | 0.25 (≈ 0.299 µM) | 0.06 (≈ 0.0718 µM)
CC[C@H]1OC(=O)[C@H](C)[C@@H](OC(=O)C(C)C)[C@H](C)[C@@H](O[C@@H]2O[C@H](C)C[C@H](N(C)C)[C@H]2O)[C@](C)(OC(=O)NC/C=C/c2ccc(-c3cccnn3)cc2)C[C@@H](C)C(=O)[C@H](C)[C@H]2NC(=O)O[C@@]21C | 2 (≈ 2.2 µM) | 0.5 (≈ 0.551 µM) | 0.06 (≈ 0.0661 µM) | 0.06 (≈ 0.0661 µM) | 0.12 (≈ 0.132 µM)
CC[C@H]1OC(=O)[C@H](C)[C@@H](OC(=O)c2cccnc2)[C@H](C)[C@@H](O[C@@H]2O[C@H](C)C[C@H](N(C)C)[C@H]2O)[C@](C)(OC(=O)NC/C=C/c2ccc(-c3ncccn3)cc2)C[C@@H](C)C(=O)[C@H](C)[C@H]2NC(=O)O[C@@]21C | 16 (≈ 17 µM) | 0.5 (≈ 0.53 µM) | 0.06 (≈ 0.0636 µM) | 0.25 (≈ 0.265 µM) | 4 (≈ 4.24 µM)
CC[C@H]1OC(=O)[C@H](C)[C@@H](OC(=O)N(C)Cc2cccnc2)[C@H](C)[C@@H](O[C@@H]2O[C@H](C)C[C@H](N(C)C)[C@H]2O)[C@](C)(OC(=O)NC/C=C/c2ccc(-c3ncccn3)cc2)C[C@@H](C)C(=O)[C@H](C)[C@H]2NC(=O)O[C@@]21C | 4 (≈ 4.06 µM) | 0.25 (≈ 0.254 µM) | 0.03 (≈ 0.0304 µM) | 0.06 (≈ 0.0608 µM) | 0.5 (≈ 0.507 µM)
CC[C@H]1OC(=O)[C@H](C)[C@@H](OC(=O)N2CCCC2)[C@H](C)[C@@H](O[C@@H]2O[C@H](C)C[C@H](N(C)C)[C@H]2O)[C@](C)(OC(=O)NC/C=C/c2ccc(-c3ncccn3)cc2)C[C@@H](C)C(=O)[C@H](C)[C@H]2NC(=O)O[C@@]21C | 16 (≈ 17.1 µM) | 0.5 (≈ 0.535 µM) | 0.06 (≈ 0.0642 µM) | 0.12 (≈ 0.128 µM) | 0.25 (≈ 0.267 µM)
